Laboratory results: paper PMC10510511, “Dose–Response Activity-Based DNA-Encoded Library Screening” (ACS Medicinal Chemistry Letters, 2023)
Entries after “also recorded” stand apart in the source; their conditions may differ.

Experiments:
factor Xa (FXa) [1] = target: T1, factor Xa (FXa) (Homo sapiens, UniProt P00742); experiment: FXa dose-response activity-based DEL screening in droplets, hit replicate count by sequencing; assay type: biochemical; conditions: for k-class (30% UV): FXa screen at 30% UV intensity; for k-class (100% UV): FXa screen at 100% UV intensity
T1 construct: purchased R&D Systems, Minneapolis, MN
T1 sequence (P00742 235-488 limits assumed): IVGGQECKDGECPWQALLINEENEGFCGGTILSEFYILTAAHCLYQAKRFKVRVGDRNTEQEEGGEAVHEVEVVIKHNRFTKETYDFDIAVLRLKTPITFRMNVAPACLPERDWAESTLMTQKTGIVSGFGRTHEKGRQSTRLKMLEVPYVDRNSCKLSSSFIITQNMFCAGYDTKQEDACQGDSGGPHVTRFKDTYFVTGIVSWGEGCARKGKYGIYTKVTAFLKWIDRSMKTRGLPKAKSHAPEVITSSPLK
T1 sequence (P00742 41-179 partner limits assumed): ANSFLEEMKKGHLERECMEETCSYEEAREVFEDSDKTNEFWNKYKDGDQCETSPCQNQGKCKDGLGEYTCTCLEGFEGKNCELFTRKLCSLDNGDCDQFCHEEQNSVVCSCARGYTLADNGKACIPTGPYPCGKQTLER
Procedure: FXa Library Screening in Droplets
DEL screening for FXa inhibitors was performed in droplets as previously described,4,8 with modifications. After ligating the closing primer, the library was prepared for droplet screening by exchanging into assay buffer, filtering through a 20 µm Celtrics filter, filter-ing through a previously described microfluidic device,4 and counting a dilution with a hemocytometer to determine bead density. AQ1 input contained fluorogenic FXa peptide substrate (6 µM), internal standard 5(6)-TAMRA (2 µM), DEL beads (∼1500 beads/µL), and a PTFE-encapsulated magnet (to agitate beads periodically; 3 mm dia., V&P Scientific, Inc., San Diego, CA) in FXa droplet assay buffer. AQ2 contained FXa (3.8 ng/µL,∼90 nM) in FXa droplet assay buffer.
OIL2 and OIL3 were neat Novec™ 7500.
UV dosing was delivered through a custom fiber optic cable7 controlled through Labview software (National Instruments, Austin, TX). Slight modifications were made to the pre-viously described confocal LIF detection system and LabVIEW code. 3,4 Briefly, droplet […]
(§1) fluorescence emission was detected by photon counting PMTs (H7828, Hamamatsu, Mid-dlesex, NJ) using a custom two-channel (520 and 570 nm) confocal LIF microscope with […]
(§2) code written in house collected signal data and determines droplet sorting decisions. The […]
(§3) Instruments), and binned into packets of counts (∆t = 0.1 ms). Median-filter smoothing (window width = 3) was applied to the signal in real-time. Droplet signal regions were identified by the 570-nm channel signal (countsn> 200) and 520-nm channel signal maxima (max = countsn−1 when countsn< countsn−1).
A dynamic sorting threshold was calculated in real-time to identify “hit droplets” with reduced 520-nm channel fluorescence. The dynamic threshold was calculated as µ - 4.5σ, where µ andσ were the mean and standard deviation of the last 1000 droplets’ fluorescence values, respectively. Hit droplets were excluded from the fluorescence values used to calculate population mean and standard deviation. […]
(§4) DNA sequence pattern matching, aggregation by bead barcode, and unique molecular identifier (UMI) filtering were previously described. 3–5 Sequences with a UMI count≤ 5 were discarded. UV doses associated with hit sequences were filtered using the sequencing barcode (Table S5) introduced during library amplification. Of the remaining sequences, compound replicates (k class) were determined by taking the sum of the sequences having the same synthesis encoding region but distinct bead barcodes.

factor Xa (FXa) [2] = target: T1, factor Xa (FXa); experiment: Biochemical assay for FXa hit validation (fluorogenic 5-FAM/QXL-520 substrate, microplate); conditions: for Maximum inhibition (%) / IC50: FXa; for IC50: 30 min preincubation, 25 °C, 4 parameter logistic fit
Procedure: Biochemical Assay for FXa Hit Validation […]
plate assay buffer). Compound dilutions (2.5 µL) were added to FXa (90 nM, 5 µL) in 384-well black-bottom microplates (Corning Scientific, Corning, NY) in triplicate and […]
(§5) incubated (30 min, 25 °C). […]
added and reaction progress was monitored immediately (λex = 483 nm,λem = 530 nm, 25 °C, CLARIOStar Plus, BMG LABTECH, Ortenberg, Germany). The percent activity was taken as the slope of the fluorescence increase over time (1–10 min) relative to that of a vehicle control. IC50 values were determined by fitting the data to a 4 parameter logistic model using nonlinear regression. […]

autotaxin (ATX) [3] = target: T2, autotaxin (ATX) (Homo sapiens, UniProt Q13822); experiment: Biochemical assay for ATX hit validation (FS-3 substrate, microplate); conditions: for Maximum inhibition (%) / IC50: ATX; for IC50: relative IC50, 30 min preincubation, 25 °C, 4 parameter logistic fit
T2 construct: purchased Echelon Biosciences, Salt Lake City, UT
Procedure: (§6) 384-well black-bottom microplates (Corning Scientific, Corning, NY) in triplicate and […]
as §5
Biochemical Assay for ATX Hit Validation […]
plate assay buffer). Compound dilutions (2.5 µL) were added to ATX (100 nM, 5 µL) in 384-well black-bottom microplates (Corning Scientific, Corning, NY) in triplicate and incubated (30 min, 25 °C). FS-3 (20 µM, 2.5 µL) was added and reaction progress was monitored immediately (λex = 483 nm, λem = 530 nm, 25 °C, CLARIOStar Plus, BMG LABTECH). The percent activity was taken as the slope of the fluorescence increase over […]
time (1–10 min) relative to that of a vehicle control. IC50 values were determined by fitting the data to a 4 parameter logistic model using nonlinear regression. […]
Vmax = [S]KM(1 + [I]Ki ) + [S]. […]
v = Vmax(1 + [I]/Ki)[S]. (3)
Rearranging to express relative velocity (v/Vmax):
Vmax = [S](KM + [S])(1 + [I]/Ki). (4)

autotaxin (ATX) [4] = target: T2, autotaxin (ATX); experiment: ATX dose-response activity-based DEL screening in droplets, hit replicate count by sequencing; assay type: biochemical; conditions: for k-class (20% UV): ATX screen at 20% UV intensity; for k-class (100% UV): ATX screen at 100% UV intensity
Description: as §1, §2, §3
A dynamic sorting threshold was calculated in real-time to identify “hit droplets” with reduced 520-nm channel fluorescence. The dynamic threshold was calculated as µ - 4.5σ, where µ andσ were the mean and standard deviation of the last 1000 droplets’ fluorescence values, respectively. Hit droplets were excluded from the fluorescence values used to calculate population mean and standard deviation. When a hit droplet was detected (droplet fluorescence< µ – 4.5σ counts), LabVIEW output a TTL pulse from the DAQ […]
triggering a square wave pulse output (0–7.5 V, 10 kHz, 300 cycles) that was amplified […]
NY) and conducted through luer-lok needle-fitted and microbore tygon tubing filled with liquid metal (gallium:indium:tin alloy 62:22:16 (w%), Alfa Aeser) into a microfabricated […]
ATX Library Screening in Droplets
The ATX droplet screening assay was performed similarly to the FXa assay, but with ATX assay reagents. This was a modification of previously described protocols.4 AQ1 input contained fluorogenic ATX substrate FS-3 9 (10 µM), internal standard 5(6)-TAMRA (5 µM), […]
excised, eluted (C&S buffer, 100 µL, 100 rpm, ON), and pooled for Illumina sequencing at the UCI genomics high throughput facility (MiSeq v2 Nano or MiSeq v2 Micro, paired end).
as §4, with “barcodes. […]” for “barcodes.”
as §6, §5

FXa = tested on: FXa; parameters: method as in PMID 16161994; conditions: cited from earlier work

Row | SMILES | k-class (30% UV) (factor Xa (FXa) [1]) | k-class (100% UV) (factor Xa (FXa) [1]) | Maximum inhibition (%) (factor Xa (FXa) [2]) | IC50 (factor Xa (FXa) [2]) [µM] | FXa inhibition (in words) (factor Xa (FXa) [2]; at 100 μM) | ATX inhibition (in words) (autotaxin (ATX) [3]) | Maximum inhibition (%) (autotaxin (ATX) [3]) | IC50 (autotaxin (ATX) [3]) [µM] | k-class (20% UV) (autotaxin (ATX) [4]) | k-class (100% UV) (autotaxin (ATX) [4]) | IC50 (FXa) [µM]
1 | NC(=O)[C@@H](Cc1csc2ccccc12)NC(=O)c1ccc(N2CCCC2=O)cc1 [Hit 1a] | 14 | 4 | 93 | 4.2 ± 0.1 | – | – | – | – | – | – | –
2 | NC(=O)[C@@H](Cc1csc2ccccc12)NC(=O)c1ccc(N2CCOCC2)cc1 [Hit 1b] | 9 | 4 | 85 | 7.4 ± 0.3 | – | – | – | – | – | – | –
3 | NC(=O)[C@@H](Cc1c[nH]c2ccccc12)NC(=O)c1ccc(N2CCCC2=O)cc1 [Hit 2a] | 9 | 6 | 95 | 9 ± 0.3 | – | – | – | – | – | – | –
4 | NC(=O)[C@@H]1CCCN1C1CCN(C(=O)c2cn3cc(Cl)ccc3n2)CC1 [Hit 3a] | 8 | 9 | 28 | > 300 | weakly inhibited FXa | – | – | – | – | – | –
5 | NC(=O)c1cccc(CNC(=O)c2ccc(Cl)s2)c1 [Hit 5a] | 10 | 8 | 58 | 19 ± 2 | – | – | – | – | – | – | –
6 | NC(=O)c1cccc(CNC(=O)c2csc(Cc3ccccc3)n2)c1 [Hit 12a] | – | – | – | – | – | least potent | 94 | 28 ± 14 | 4 | 8 | –
7 | NC(=O)c1cccc(CNC(=O)[C@@H]2C[C@H]2c2ccccc2)c1 [Hit 12b] | – | – | – | – | – | false positive; also recorded: did not inhibit ATX | – | > 300 | 2 | 3 | –
8 | Cc1cccn2cc(C(=O)NC3c4ccccc4CCc4cc(OCC(N)=O)ccc43)nc12 (stereo not drawn) [Hit 13a] | – | – | – | – | – | – | 57 | 6 ± 1 | 0 | 3 | –
9 | NC(=O)COc1ccc2c(c1)CCc1ccccc1C2NC(=O)c1ccc(Cl)o1 (stereo not drawn) [Hit 13b] | – | – | – | – | – | – | 26 | 6 ± 3 | 0 | 3 | –
10 | NC(=O)Cn1c(=O)n(C2CCN(C(=O)c3ccc(Cl)cc3C(F)(F)F)CC2)c2ccccc21 [Hit 16a] | – | – | – | – | – | inhibited ATX fully | 91 | 7 ± 2 | 6 | 4 | –
11 | NC(=O)Cn1c(=O)n(C2CCN(C(=O)c3cnn(CC4CCCCC4)c3)CC2)c2ccccc21 [Hit 16b] | – | – | – | – | – | inhibited ATX fully | 96 | 13 ± 2 | 4 | 2 | –
12 | NC(=O)c1ccc2c(c1)CCN(C(=O)c1cnn(CC3CCCCC3)c1)C2 [Hit 17a] | – | – | – | – | – | inhibited ATX fully | 91 | 1 ± 0.3 | 7 | 6 | –
